Laboratory results taken from patent US8367727B2, “Method of using abscisic acid to treat diseases and disorders” (priority 2006, dated 2013).

Tests used:
[1] = tested on: white adipose tissue (WAT) of db/db mice; experiment: WAT histology: adipocyte area and macrophage infiltration; type: in vivo
Description: (§1) Hepatic and adipose sections were fixed in 10% buffered neutral formalin, embedded in paraffin, cut at thicknesses of 7 microns and later stained with hematoxylin and eosin (H&E) for histological examination of adipocyte hypertrophy and inflammatory lesions. Hepatic sections were scored based on the amount of lipodystrophy observed according to the Nonalcoholic steatohepatitis (NASH) scoring method, with a score of 0 signifying <5% of the cells contain lipid droplets and a score of 4 signifying that >75% of the cells contained lipids and a magnification of 400× (23). The final score was the average of five randomly chosen fields. The area of adipocytes from WAT was analyzed using Sigma Pro® 5.0 software at a magnification of 100×, and macrophage infiltration was determined by averaging the number of macrophages observed in five different fields at 400×.

db/db mice = experiment: Liver histology, hepatic steatosis by NASH scoring method; type: in vivo; details: day 36, P<0.02
Description: as §1

[2] = tested on: PPAR γ and PPAR γ-responsive genes in WAT; experiment: Quantitative real-time RT-PCR of white adipose tissue (WAT) of db/db mice; type: in vivo
Description: Complementary DNA (cDNA) concentrations for β-actin, PPAR γ, PPAR α, PPAR δ, adiponectin, CD36, aP2, and TNF-α were examined by real-time quantitative PCR using and iCycler IQ System and the iQ SYBR green supermix (Bio-Rad). SYBR green I is a general double-stranded DNA intercalating dye and, therefore, may detect nonspecific products and primer/dimers in addition to the amplicon of interest. In order to determine the number of products produced during the real-time PCR, a melting curve analysis was performed on each product. Real-time PCR was used to measure the starting amount of nucleic acid of each unknown sample of cDNA on the same 96-well plate. Results are presented as starting quantity of cDNA (picograms) per microgram of mRNA.

[3] = tested on: mesenteric lymph node-derived lymphocytes; experiment: Proliferation and PGE2 production, mesenteric lymph node-derived lymphocytes; type: cell-based, mice
[4] = Body weight, organ weights and feed intake of db/db mice; type: in vivo
Procedure: Experiment 1: mice (n=25) were fed high-fat (>40% energy from fat), isocaloric, isonitrogenous diets containing 0, 100, 200, 400, and 800 mg of a racemic (±) ABA mixture/kg diet for 36 days (Table 1) (Sigma). These doses were chosen based on the standard concentrations of TZDs utilized in the treatment of NIDDM. The mice were weighed and their food intake was recorded daily. On day 36 of the study fasted mice (12 h) were bled through the caudal vein and fasting blood glucose concentrations were determined. To investigate the ability of ABA to normalize glucose concentrations, an intraperitoneal glucose tolerance test (IPGTT) was performed on day 36 on the fasted mice. Briefly, mice were bled at 0, 10, 25, and 45 minutes following the administration of glucose (2 g/kg) for measurement of plasma glucose levels. […] Weights were recorded for WAT, interscapular brown adipose tissue (BAT), and liver.
Experiment 2: The ABA dose utilized (100 mg ABA/kg) was based on the results obtained from the IPGTT of the ABA titration study (i.e., Experiment 1). Mice in experiment 2 were fed high-fat diets containing 0 or 100 mg ABA/kg for 36 days. Their body weights and food intake was recorded daily, and blood was collected on day 36 of the study during an IPGTT. This IPGTT included one additional 100 minutes time point. […] Weights were recorded for abdominal WAT, BAT, and liver.

[5] = all studies conducted with ABA; cited from earlier work
[6] = tested on: adipose tissue macrophages (ATM); experiment: Flow cytometry of adipose tissue macrophage subsets in stromal-vascular fraction of WAT, db/db mice; type: in vivo
[7] = tested on: dextran sodium sulfate (DSS)-induced colitis; experiment: DSS-induced colitis in C57BL/6J (wt) and PPAR γ flfl; CD4 Cre+ mice; type: in vivo
Procedure: Eight to twelve week old C57BL/6J (n=16) and PPAR γ flfl; CD4 cre+(n=20) mice were housed at the animal facilities at Virginia Polytechnic Institute and State University in a room maintained at 75° F., with a 12:12 h light-dark cycle starting from 6:00 AM. All experimental procedures were approved by the Institutional Animal Care and Use Committee of Virginia Polytechnic Institute and State University and met or exceeded requirements of the Public Health Service/National Institutes of Health and the Animal Welfare Act. C57BL/6J mice were fed AIN-93G-based diets with or without 100 mg/kg of a racemic ABA mixture for 35 days prior to induction of colitis with water containing 2.5% dextran sodium sulfate (DSS), 36,000-44,000 mol wt (ICN Biomedicals, Aurora, Ohio). After the DSS challenge mice were weighed on a daily basis and examined for clinical signs of disease associated with colitis (i.e., perianal soiling, rectal bleeding, diarrhea, and piloerection). For the DSS challenge, the disease activity indices and rectal bleeding scores were calculated using a modification of a previously published compounded clinical score (50). […] Spleen and mesenteric lymph nodes (MLN) were scored based on size and macroscopic inflammatory lesions (0-3), excised, and then crushed to produce single-cell suspensions for flow cytometry.

[8] = 100 mg ABA/kg diet, 36 days, P<0.01

In the case of `CC1=CC(=O)CC(C)(C)C1(O)/C=C/C(C)=C\C(=O)O` (racemic) [ABA, abscisic acid], the “adipocyte size in WAT” value ([1]; ABA-fed vs control-fed db/db mice) is reported as “significantly more small adipocytes and fewer hypertrophic adipocytes”, the “macrophages infiltrating WAT” value ([1]; ABA-fed vs control-fed, P<0.05) is reported as “significantly lower number of macrophages” and the “hepatic steatosis (NASH scoring)” value (db/db mice) is reported as “significantly mitigated”. The “mRNA expression of PPAR α or PPAR δ” value ([2]; 100 mg ABA/kg diet, 36 days) was “no significant differences”, the “WAT expression of CD36 mRNA” value [2, 8] was “significant increase” and the “WAT expression of PPAR γ mRNA” value [2, 8] was “significant increase”. The “WAT expression of aP2 mRNA” value ([2]; 100 mg ABA/kg diet, 36 days, P<0.02) was “significant increase”, the “WAT expression of adiponectin mRNA” value ([2]; 100 mg ABA/kg diet, 36 days, P<0.05) was “significant increase” and the “TNF-α mRNA expression in WAT” value ([2]; ABA-fed db/db mice, P<0.05) was “down-regulated”. For the same compound, the “prostaglandin E2 (PGE2) production” value ([3]; ABA feeding) was “decreased”, the “augmentation of proliferation of mesenteric lymph node-derived lymphocytes” value ([3]; following ABA feeding) was 10 fold and the “final body weight less than control mice” value ([4]; 41.34 g vs 43.54 g, not statistically significant) was “approximately 2.2 grams”. The Total feed intake ([4]; between treatment groups) was “did not differ significantly”, the Final body weight ([4]; db/db mice, 100 mg ABA/kg diet, day 36) was “no significant differences in body weights” and the side-effects [5] was “no side-effects observed”. For the same compound, the “F4/80hi CD11b+CCR2+ ATM subset” value ([6]; P=0.006) was “reduction”, the “F4/80lo ATM” value ([6]; db/db mice) was “no effect” and the “F4/80hi macrophage infiltration into WAT” value ([6]; db/db mice, P=0.05) was “significantly suppressed”. The “amount of F4/80 on surface of F4/80hi macrophages (MFI)” value ([6]; vs control diet) was “significantly lower”, the “improvements in disease activity and inflammation” value ([7]; CD4cre mice lacking PPAR γ in CD4+ T cells) was “not present in the CD4cre mice” and the “disease activity and macroscopic inflammation” value ([7]; wild-type (wt) mice) was “significantly reduced disease activity and macroscopically observable inflammation”.
